A short description of series [1]: Drug level in human liver microsomes treated with 10 uM N-(6-(7H-Pyrrolo[2,3-d]pyrimidin-4-yl)-2,3-dihydro-1H-inden-1-yl)cyanamide (11), (S)-N-(6-(7H-Pyrrolo[2,3-d]pyrimidin-4-yl)-2,3-dihydro-1H-inden-1-yl)cyanamide assessed as compound formation at 10 uM in presence of GSH and NADPH after 15 to 45 mins by LC-MS/MS analysis. It is filed as ADME, microsome.
A short description of series [2]: GSH reactivity in phosphate buffer assessed as half life at 20 uM after 1 hr in presence of L-glutathione by LC-MS/MS analysis. It is filed as physicochemical. The following applies: phosphate buffer with L-glutathione.
The nature of series [3]: Half life in rat whole blood. The series is classed as ADME, tissue-based.
A short description of series [4]: Apparent permeability across apical to basolateral side in RRCK cells after […] by HPLC analysis. The series is classed as ADME, cell-based, Canis lupus familiaris, MDCKII-LE. The following applies: dog, MDCK.
A short description of series [5]: Half life in human whole blood. The series is classed as ADME, tissue-based.
The nature of series [6]: Clearance in rat at 1 mg/kg, iv administered as single dose by LC-MS/MS analysis. The following applies: in vivo. The series is classed as ADME, organism-based.
A short description of series [7]: Covalent reactivity with N-alpha-acetyl-L-lysine assessed as half life. The series is classed as physicochemical. The following applies: N-alpha-acetyl-L-lysine solution.
Series [8] is described as follows: AUC in rat at 1 mg/kg, iv administered as single dose by LC-MS/MS analysis. It is filed as ADME, organism-based. The following applies: in vivo.
Series [9] in a line: Apparent intrinsic clearance in human liver microsomes. The series is classed as ADME, microsome. The following applies: read-out: CLH(app). A general note: Liver microsomes are vesicles of endoplasmic reticulum, rich in cytochrome P450 enzymes.
The nature of series [10]: Apparent intrinsic clearance in rat liver microsomes. It is filed as ADME, microsome. The following applies: read-out: CLH(app).
Series [11] is described as follows: Volume of distribution at steady state in rat at 1 mg/kg, iv administered as single dose by LC-MS/MS analysis. It is filed as ADME, organism-based. The following applies: in vivo, read-out: Vdss.
Series [12] in a line: Drug metabolism in human liver microsomes assessed as (S)-4-amino-6-(3-cyanamido-2,3-dihydro-1H-inden-5-yl)pyrimidine-5-carboxylic acid metabolite formation at 10 uM in presence of GSH and NADPH after 15 to 45 mins by LC-MS/MS analysis. It is filed as ADME, microsome.
A short description of series [13]: AUC in rat at 1 mg/kg, iv co-administered with CYP450 inhibitor ABT by LC-MS/MS analysis. The following applies: in vivo. It is filed as ADME, organism-based.
Series [14] is described as follows: Clearance in rat at 1 mg/kg, iv co-administered with CYP450 inhibitor ABT by LC-MS/MS analysis. It is filed as ADME, organism-based. The following applies: in vivo.
The nature of series [15]: Drug metabolism in human liver microsomes assessed as 2-((R)-3-(N-((S)-6-(7H-pyrrolo[2,3-d]pyrimidin-4-yl)-2,3-dihydro-1H-inden-1-yl)carbamimidoylthio)-2-aminopropanamido)acetic acid metabolite formation at 10 uM in presence of GSH and NADPH after 15 to 45 mins by LC-MS/MS analysis. It is filed as ADME, microsome.
Series [16] can be described thus: Half life in rat at 1 mg/kg, iv administered as single dose by LC-MS/MS analysis. It is filed as ADME, organism-based. The following applies: in vivo.
Series [17] is described as follows: Oral bioavailability in rat at 3 mg/kg administered as single dose by LC-MS/MS analysis. It is filed as ADME, organism-based. The following applies: in vivo.
A short description of series [18]: Half life in rat at 1 mg/kg, iv co-administered with CYP450 inhibitor ABT by LC-MS/MS analysis. The following applies: in vivo. The series is classed as ADME, organism-based.
The nature of series [19]: AUC in rat at 3 mg/kg, po administered as single dose by LC-MS/MS analysis. The series is classed as ADME, organism-based. The following applies: in vivo.
A short description of series [20]: Drug metabolism in human liver microsomes assessed as (S)-1-(6-(7H-pyrrolo[2,3-d]pyrimidin-4-yl)-2,3-dihydro-1H-inden-1-yl)urea metabolite formation at 10 uM in presence of GSH and NADPH after 15 to 45 mins by LC-MS/MS analysis. The series is classed as ADME, microsome.
A short description of series [21]: Volume of distribution at steady state in rat at 1 mg/kg, iv co-administered with CYP450 inhibitor ABT by LC-MS/MS analysis. The series is classed as ADME, organism-based. The following applies: in vivo, read-out: Vdss.

`NC(=O)N[C@H]1CCc2ccc(-c3ncnc4[nH]ccc34)cc21`: the Drug metabolism result in series [1] was “Metabolite_Detected”.

Consider `C=CC(=O)Nc1cccc(-c2ncnc3[nH]cc(CCOC)c23)c1`, for which, in [2], the half-life at 20 µM turned out to be 0.933 h. Moreover, the half-life in series [3] is 0.483 h; in [5], 2.47 h. The Papp A→B at […] in [4] was determined as 10 ×10⁻⁶ cm/s. In series [6], the clearance came out at 455 mL/min/kg.

With `CS(=O)(=O)N[C@@H]1C[C@H](NC#N)c2cc(-c3ncnc4[nH]ccc34)ccc21`, in series [2], the half-life at 20 µM was 0.383 h. The half-life in series [3] amounted to 0.517 h; in series [5] it was 3.47 h. The Papp A→B at […] in series [4] is less than 1 ×10⁻⁶ cm/s.

In the case of `CN(C#N)C1CCc2ccc(-c3ncnc4[nH]ccc34)cc21` (stereo unspecified), the half-life at 20 µM in series [2] was more than 3.17 h.

Regarding `CC1(NC#N)CCc2ccc(-c3ncnc4[nH]ccc34)cc21` (stereo unspecified), in series [2], the half-life at 20 µM was more than 2 h.

On to `COCCc1c[nH]c2ncnc(-c3ccc4c(c3)C(NC#N)CCO4)c12` (stereo unspecified), for which, in [2], the half-life at 20 µM came to 1.17 h.

`C1CCNC1` [PYRROLIDINE]: in series [7], the half-life is 7.7 h.

As for `N#CN[C@H]1CCc2ccc(-c3ncnc4[nH]ccc34)cc21`, the area under the curve (AUC) in series [8] turned out to be 466 ng·h/mL; in series [13], 488 ng·h/mL; in [19], 240 ng·h/mL. In addition, the values for the microsomal CLint in series [9] and in [10] were 50 µL/min/mg and 100 µL/min/mg, respectively. The half-life at 20 µM in series [2] is 1.15 h. In addition, the Vd in series [11] worked out at 0.35 L/kg; in [21], 0.63 L/kg. The Drug metabolism result in series [12], in series [15] and in [20] was “Metabolite_Detected” each time. Moreover, the clearance in series [14] was 34 mL/min/kg; in series [6] it was 36 mL/min/kg. For the same compound, the half-life in series [3] was 2.5 h; in series [16] it was 0.27 h; in [18] it was 0.75 h; in series [5] it was more than 6 h. Besides, the apical-to-basolateral permeability (Papp A→B) at […] in series [4] stood at 11 ×10⁻⁶ cm/s. The bioavailability in series [17] was 16%.

Regarding `N=C(N[C@H]1CCc2ccc(-c3ncnc4[nH]ccc34)cc21)SC[C@H](NC(=O)CC[C@H](N)C(=O)O)C(=O)NCC(=O)O`, the Drug metabolism result in series [1] is “Metabolite_Detected”.

Turning to `COCCc1c[nH]c2ncnc(-c3ccc4c(c3)N(C#N)CCO4)c12`, in series [2], the half-life at 20 µM was more than 3.17 h.

Take `N#CN[C@H]1CCOc2ccc(-c3ncnc4[nH]ccc34)cc21`: in series [2], the half-life at 20 µM came to 0.683 h.

Consider `COCCc1c[nH]c2ncnc(-c3ccc4c(c3)N(C#N)CC(F)(F)O4)c12`, for which, in series [2], the half-life at 20 µM is more than 2 h. Besides, the apparent permeability from apical to basolateral (Papp A→B) at […] in series [4] came to 14 ×10⁻⁶ cm/s.

For `N#CN[C@@H]1CCc2ccc(-c3ncnc4[nH]ccc34)cc21`, in series [2], the half-life at 20 µM worked out at 1.35 h.

With `COCCS(=O)(=O)N[C@@H]1C[C@H](NC#N)c2cc(-c3ncnc4[nH]ccc34)ccc21`, the half-life at 20 µM in [2] was 1.17 h.

Turning to `C1CCNCC1` [PIPERIDINE], in series [7], the half-life was 11.1 h.

Turning to `C1CNC1` [AZETIDINE], the half-life in series [7] was 2.59 h.

For `N#CNC1CCOc2ccc(-c3ncnc4[nH]ccc34)cc21` (stereo unspecified), the half-life at 20 µM in series [2] came to 0.6 h.

As to `N#CN[C@H]1CCc2ccc(-c3ncnc4[nH]cc(-c5cccc(CO)c5)c34)cc21`, the half-life at 20 µM in series [2] came out at 1.15 h. Besides, the half-life in [3] amounted to 0.983 h; in [5], 0.8 h. Also, in series [4], the Papp A→B at […] was determined as 4 ×10⁻⁶ cm/s.

As for `N#CN[C@H]1CCc2ccc(-c3ncnc4[nH]cc(-c5ccccc5)c34)cc21`, the half-life at 20 µM in [2] was determined as 1.57 h. In addition, the half-life in series [3] and in series [5] was 1.02 h in each case. The Papp A→B at […] in series [4] was found to be 2 ×10⁻⁶ cm/s.

Turning to `N=C(N[C@H]1CCc2ccc(-c3ncnc4[nH]ccc34)cc21)SC[C@H](N)C(=O)NCC(=O)O`, in series [1], the Drug metabolism entry was “Metabolite_Detected”.

Take `COc1ccc(S(=O)(=O)N[C@@H]2C[C@H](NC#N)c3cc(-c4ncnc5[nH]ccc45)ccc32)cc1`: in [2], the half-life at 20 µM was 0.583 h.

Turning to `N#CN[C@H]1C[C@@H](NS(=O)(=O)c2cccc(F)c2)c2ccc(-c3ncnc4[nH]ccc34)cc21`, the half-life at 20 µM in [2] stood at 1.33 h. Also, the Papp A→B at […] in series [4] was determined as 10 ×10⁻⁶ cm/s.

For `N#CN[C@H]1C[C@@H](NS(=O)(=O)c2cccc(C#N)c2)c2ccc(-c3ncnc4[nH]ccc34)cc21`, the half-life at 20 µM in series [2] worked out at 0.4 h. Moreover, the apical-to-basolateral permeability (Papp A→B) at […] in series [4] was 6 ×10⁻⁶ cm/s.

For the compound `N#CN[C@H]1C[C@H](O)c2ccc(-c3ncnc4[nH]ccc34)cc21`, in [2], the half-life at 20 µM was 0.667 h.

Consider `N#CNC1CCc2ccc(-c3ncnc4[nH]ccc34)cc21` (stereo unspecified), for which the half-life at 20 µM in series [2] was 1.12 h.

In the case of `C[C@]1(NC#N)CCc2ccc(-c3ncnc4[nH]ccc34)cc21`, in [2], the half-life at 20 µM is more than 2 h. The half-life in series [3] and in series [5] was more than 6 h in each case. Also, the Papp A→B at […] in series [4] was 19 ×10⁻⁶ cm/s.

Regarding `N#CN[C@H]1C[C@@H](O)c2ccc(-c3ncnc4[nH]ccc34)cc21`, in series [2], the half-life at 20 µM was found to be 0.467 h. The values for the half-life in series [3] and in series [5] were 0.333 h and 5.65 h, respectively. Moreover, in [4], the apical-to-basolateral permeability (Papp A→B) at […] was 2 ×10⁻⁶ cm/s.

For the compound `C=CC(=O)N1CCOc2ccc(-c3ncnc4[nH]cc(CCOC)c34)cc21`, the half-life at 20 µM in series [2] amounted to 0.05 h. The half-life in series [3] worked out at 0.0667 h; in [5], 0.0833 h.

On to `Cn1nccc1S(=O)(=O)N[C@@H]1C[C@H](NC#N)c2cc(-c3ncnc4[nH]ccc34)ccc21`, for which, in [2], the half-life at 20 µM was 0.367 h.

For `COCCc1c[nH]c2ncnc(-c3ccc4c(c3)C(NC#N)CC4)c12` (stereo unspecified), the half-life at 20 µM in series [2] turned out to be 1.23 h.

For the compound `N#CN[C@@H]1c2cc(-c3ncnc4[nH]ccc34)ccc2C[C@H]1O`, the half-life at 20 µM in [2] was 0.783 h.

Regarding `C[C@@]1(NC#N)CCc2ccc(-c3ncnc4[nH]ccc34)cc21`, the half-life at 20 µM in series [2] is more than 2 h.

Consider `C[C@@H]1Cc2ccc(-c3ncnc4[nH]ccc34)cc2[C@@H]1NC#N`, for which the half-life at 20 µM in [2] was 1.58 h.

With `N#CN[C@H]1CCc2ccc(-c3ncnc(N)c3C(=O)O)cc21`, in [1], the Drug metabolism entry was “Metabolite_Detected”.

In general, half-life refers to the time in which the quantity being followed falls by half. As usually defined, the Papp A→B is how fast a substance crosses the layer from the apical side. By clearance is commonly meant the rate of elimination divided by the concentration. What is called AUC is the area under the concentration-time curve, a measure of exposure. As usually defined, the bioavailability is the share of a dose that reaches the circulation, judged against a reference dose that is usually intravenous. Low readings indicate little systemic uptake, high ones much systemic uptake.

For the origin of these results see ChEMBL document CHEMBL4261650, “Identification of Cyanamide-Based Janus Kinase 3 (JAK3) Covalent Inhibitors” (J Med Chem, 2018).
